Experiments:
hepatocytes (HeLa) = test: GFP mRNA delivery, fluorescence intensity of lysed cells; type: cell-based; conditions: GFP mRNA LNP 0.1 μg/well, 24 hours, FIG. 4
Procedure: (§1) The test was conducted by delivering GFP mRNA molecules into hepatocytes (HeLa) using each lipid nanoparticle synthesized with various amine headgroups (Compound 1 to Compound 5, Compound 11, and Compound 12). The expression of the gene was confirmed by measuring the […] intensity.
Specifically, lipid nanoparticles encapsulated with 100 ng GFP mRNA (SEQ ID NO: 6) at a concentration of 0.1 μg/well (based on mRNA concentration) were treated into the hepatocyte line (Nexel, Korea) seeded in 96-well plate at 1×10^5 cells/well. After 24 hours, the cells were treated with 100 μl/well of cell lysis buffer (Thermofischer, US) and left at room temperature for 10 minutes, and then the fluorescence intensity of the lysed cells was measured using an Infinite M200 plate reader (Tecan, USA) (FIG. 4).

[1] = test system: HeLa cells (HeLa-Luc) expressing luciferase; test: Luc siRNA delivery, luminescence intensity in luciferase-expressing HeLa cells; type: cell-based; conditions: Luc siRNA LNP 5 nM/well, 24 hours, FIG. 3
Procedure: as §1, with “siRNA molecules, which inhibit the expression of luciferase enzyme,” for “GFP mRNA molecules”, “engineered HeLa cells (HeLa-Luc) expressing luciferase” for “hepatocytes (HeLa)”
Specifically, lipid nanoparticles encapsulated with Luc siRNAs (SEQ ID NOs: 4 and 5) at a concentration of 5 nM/well (based on siRNA concentration) were treated into the Hella cell line (Nexel, Korea) seeded in 96-well plate at […]. After 24 hours, the cells were treated with 100 μl/well of Bright-Glo™ luciferase assay solution (promega, USA) and left at room temperature for 10 minutes, and then the luminescence intensity of the lysed cells was measured using an Infinite M200 plate reader (Tecan, USA) (FIG. 3).

C57BL/6 mice [2] = test: Luc mRNA delivery via intravenous injection, bioluminescence by IVIS; type: in vivo; conditions: 0.1 mg/kg Luc mRNA, 3 hours, SM-102 control, FIG. 7
Procedure: To investigate the mRNA delivery of the 221-SS lipid nanoparticles, luciferase mRNA was delivered into mice, and gene expression was confirmed by bioluminescence.
Specifically, 221-SS 3 tail lipid nanoparticles encapsulated with Luc mRNA (SEQ ID NO: 1) were manufactured by the method of Example 2-3 above. The prepared lipid nanoparticles were injected intravenously into 7-week-old C57BL/6 mice at a dose of 0.1 mg/kg (based on mRNA), and 3 hours later, luciferin 0.25 mg/kg was administered intraperitoneally and bioluminescence was confirmed by IVIS (PerkinElmer, USA).
Next, in order to confirm the effect of the number of disulfide bond chains (tails), an in vivo assay using lipid nanoparticles encapsulated with 2 μg (0.1 mg/kg) of Luc mRNA (SEQ ID NO: 1) containing either 221-SS 3-tail (Compound 5) or 221-SS 4-tail (Compound 6) was performed via intravenous injection. The same experiment was also performed using lipid nanoparticles manufactured from a 1:1 mixture of 221-SS 3 chain and 221-SS 4 chain, wherein SM-102, FDA-approved ionizable lipid, was used as a control group.
Specifically, the respective lipid nanoparticles were injected intravenously into 7-week-old C57BL/6 mice at a dose of 0.1 mg/kg (based on mRNA), and 3 hours later, luciferin 0.25 mg/kg was administered intraperitoneally and bioluminescence was confirmed by IVIS (PerkinElmer, USA).

C57BL/6 mice [3] = test: Luc mRNA delivery via intramuscular injection, bioluminescence by IVIS; type: in vivo; conditions: 0.1 mg/kg Luc mRNA, 3 hours, SM-102 control, FIG. 9
Procedure: Luc mRNA (SEQ ID NO: 1) was delivered to mice by intramuscular injection, and gene expression was confirmed by bioluminescence.
Specifically, lipid nanoparticles (221-SS 3 tail, 221-SS 4 tail alone and mixed) containing Luc mRNA were manufactured, as described above, followed by intramuscular injection into C57BL/6 mice at a concentration of 0.1 mg/kg (based on mRNA). After 3 hours, luciferin 0.25 mg/kg was administered intraperitoneally and bioluminescence was confirmed by IVIS (PerkinElmer, USA).

SMILES	fluorescence intensity (GFP mRNA delivery) (hepatocytes (HeLa))	luminescence intensity (Luc siRNA delivery) [1]	bioluminescence according to number of chains (C57BL/6 mice [2])	bioluminescence according to number of chains (C57BL/6 mice [3])
CCCCCCCCCCCCSSCCN(CCSSCCCCCCCCCCCC)CCN(C)C [Compound 1]	higher efficiency	higher efficiency	–	–
CCCCCCCCCCCCSSCCNCCCN(C)CCCN(CCSSCCCCCCCCCCCC)CCSSCCCCCCCCCCCC [Compound 5]	higher efficiency	higher efficiency	better effects than the negative control	superior to the negative control
CCCCCCCCCCCCSSCCN(CCCN(C)CCCN(CCSSCCCCCCCCCCCC)CCSSCCCCCCCCCCCC)CCSSCCCCCCCCCCCC [Compound 6]	–	–	better effects than the negative control	superior to the negative control
